Laboratory results: US9505798B2, “Steroid compounds as RORyt modulators and uses thereof” (New York University, priority 2010, dated 2016)

Experiments:
[1] = system: human embryonic kidney 293t cell lines; test: Toxicity on human embryonic kidney 293T cells; settings: human
Description: The following representative compounds are tested for their RORγt inhibitory activity and toxicity.

[2] = system: human Th17 cell differentiation; test: Human Th17 cell differentiation from naive cord blood CD4+ T cells; assay type: cell-based
Description: GFP expressing cells were gated for analysis. DMSO, Dig(dhd) (40 μM) or Dig(sal) (10 μM) was added 6-8 h after viral transduction. c, Flow cytometry of the production of IL-17a and IFN-γ by human naive cord blood T cells cultured for six days in the presence of IL-2, IL-23, and IL-1β, with various concentrations of TGF-β. DMSO, Dig(dhd), or Dig(sal) at indicated concentrations (μM) was added 16 h after cytokine addition.
Blood samples were obtained from the New York Blood Center. Mononuclear cells were prepared from buffy coats from healthy adult donors or from cord blood, using FicollPAQUE gradients. CD4^+ T cells were magnetically selected (autoMACS, Miltenyi). Adult memory CD4^+ T cell subsets were further purified as CD3^+CD4^+CD25^− CD45RO^+CCR6^+CD161^+ by cell sorting on a FACSAria (BD). Naive CD4^+ T cells were isolated from cord blood as CD3^+CD4^+CD45RA^+HLA-DR^−CD25^−DAPI^−. Memory cells were activated with anti-CD3/CD28 coated beads (1 bead/cell) in T cell media (see above) supplemented with 100 U/mL IL-2 (Peprotech), 10 ng/mL IL-1b and 10 ng/mL IL-23 (eBioscience). Naive cells were activated with anti-CD3/CD28 beads and cultured with the same cytokines, and TGF-b (0, 0.1, 1, or, 10 ng/mL) (Peprotech), in XVIVO-20 (Lonza) media. […] Naive CD4^+ T cells, cultured in XVIVO-20 media supplemented 100 U/mL IL-2 (Peprotech), were transduced with RORad-IRES-GFP or RORγt-IRES-GFP on day 1 and analyzed on day 6. GFP expressing cells were gated for analysis. DMSO or compounds were added 6-8 hours after the viral transduction.
Blood samples were obtained from the New York Blood Center. Mononuclear cells were prepared from buffy coats from healthy adult donors or from cord blood, using FicollPAQUE gradients. CD4^+ T cells were magnetically selected (autoMACS, Miltenyi). Adult memory CD4+ T cell subsets were further purified as CD3^+CD4^+CD25^−CD45RO^+CCR6^+CD161^+ by cell sorting on a FACSAria (BD). Naive CD4^+ T cells were isolated from cord blood as CD3^+CD4^+CD45RA^+HLA^−DR^−CD25^−DAPI^−. Memory cells were activated with anti-CD3/CD28 coated beads (1 bead/cell) in T cell media (see above) supplemented with 100 U/mL IL-2 (Peprotech), 10 ng/mL IL-1β and 10 ng/mL IL-23 (eBioscience). Naive cells were activated with anti-CD3/CD28 beads and cultured with the same cytokines, and TGF-β (0, 0.1, 1, or, 10 ng/mL) (Peprotech), in XVIVO-20 (Lonza) media. […] Naive CD4+ T cells, cultured in XVIVO-20 media supplemented with 100 U/mL IL-2 (Peprotech), were transduced with RORαd-IRES-GFP or RORγt-IRES-GFP on day 1 and analyzed on day 6. GFP expressing cells were gated for analysis. DMSO or compounds were added 6-8 hours after the viral transduction.

[3] = system: gut (large intestine) Th17 cells; test: DSS-induced model relating to intestinal bowel diseases; assay type: in vivo, mouse; set-up: dose or concentration left out as unconfirmed; settings: IP daily, day 7
Description: Th17 cells were induced by Dextran Sulfate Sodium (DSS) treatment, a chemical agent that causes intestinal epithelial injury, and thus, is often used to generate an animal model that mimics many aspects of intestinal bowel diseases. […] Gut associated mononuclear cells were collected and their cytokine expression was analyzed on day 7. Representative FACS plots (gated on CD4^+CD3^+TCRβ^+CD19^− cells) from each group are shown (left).
B6 wild-type mice received 2% DSS (Dextran Sulfate Sodium) ad libitum in drinking water for 7 days. […] Gut associated cells were collected and activated for cytokine straining on day 7. To isolate cells from the small intestinal lamina propria, Peyer's patches, fat and mesenterium were removed before opening the intestine longitudinally. The tissue was cut into 2 cm pieces and washed in calcium- and magnesium-free PBS (Gibco). The tissue was then washed for 10 minutes in cold 1 mM DTT (Sigma) in PBS then two 10 minute washes in 30 mM EDTA, 10 mM HEPES (Gibco) in PBS at 37° C. The tissue was washed with complete RPMI and digested for 1.5 hr at 37° C. in 5% CO2, humidified atmosphere, in complete RPMI containing 100 U ml-1 type VIII collagenase (Sigma) and 150 μg ml—1 DNaseI (Sigma). After digestion, cells were eluted from the tissue by shaking. Live cells were isolated using a Percoll (Pharmacia) gradient. […]

SMILES | cytotoxic concentration on human cells [1] [µM] | expression of CCR6 [2] | IFN-γ expression in T cells ([2]; FIG. 3c) | Th17 cell differentiation ([2]; FIG. 3c) | inhibition at 40 µM ([2]; Homo sapiens, CD4+ T, read-out: Th17 inhibition) [%] | number of gut (large intestine) Th17 cells [3]
CC1O[C@@H](OC2C(C)O[C@H](OC3C(C)O[C@@H](O[C@H]4CC[C@@]5(C)[C@H](CC[C@@H]6[C@@H]5C[C@@H](O)[C@]5(C)[C@@H](C(CO)CCO)CC[C@]65O)C4)C[C@H]3O)C[C@H]2O)C[C@@H](O)C1O (stereo partly drawn) [Compound 13, 20,22-Dihydrodigoxin-21,23-diol] | > 40 | reduced | reciprocal increases | blocked | ~80 | 
C[C@H]1O[C@@H](O[C@H]2[C@@H](O)C[C@H](O[C@H]3[C@@H](O)C[C@H](O[C@H]4CC[C@@]5(C)[C@H](CC[C@@H]6[C@@H]5C[C@@H](O)[C@]5(C)[C@@H](C7=CC(=O)OC7)CC[C@]65O)C4)O[C@@H]3C)O[C@@H]2C)C[C@H](O)[C@@H]1O [Digoxin] |  |  |  |  |  | reduction
